Assay results: US6414005B1, “Heterocyclic compounds having nos inhibitory activities” (Chugai Seiyaku Kabushiki Kaisha, priority 1997, dated 2002)
pIC50: −log10 of the molar value. Counter-ions that a name gives are not always drawn. Like-named read-outs stand apart in the source and are kept apart here.

Key:
iNOS (type 2) = iNOS (type 2) (Rattus norvegicus, UniProt Q06518); assay: NOS activity, conversion of L-[3H]arginine to L-[3H]citrulline, iNOS; assay type: biochemical; details: 100 nM L-[3H]arginine, 37° C., 10 min
Sequence of iNOS (type 2) (Q06518 whole entry, canonical isoform): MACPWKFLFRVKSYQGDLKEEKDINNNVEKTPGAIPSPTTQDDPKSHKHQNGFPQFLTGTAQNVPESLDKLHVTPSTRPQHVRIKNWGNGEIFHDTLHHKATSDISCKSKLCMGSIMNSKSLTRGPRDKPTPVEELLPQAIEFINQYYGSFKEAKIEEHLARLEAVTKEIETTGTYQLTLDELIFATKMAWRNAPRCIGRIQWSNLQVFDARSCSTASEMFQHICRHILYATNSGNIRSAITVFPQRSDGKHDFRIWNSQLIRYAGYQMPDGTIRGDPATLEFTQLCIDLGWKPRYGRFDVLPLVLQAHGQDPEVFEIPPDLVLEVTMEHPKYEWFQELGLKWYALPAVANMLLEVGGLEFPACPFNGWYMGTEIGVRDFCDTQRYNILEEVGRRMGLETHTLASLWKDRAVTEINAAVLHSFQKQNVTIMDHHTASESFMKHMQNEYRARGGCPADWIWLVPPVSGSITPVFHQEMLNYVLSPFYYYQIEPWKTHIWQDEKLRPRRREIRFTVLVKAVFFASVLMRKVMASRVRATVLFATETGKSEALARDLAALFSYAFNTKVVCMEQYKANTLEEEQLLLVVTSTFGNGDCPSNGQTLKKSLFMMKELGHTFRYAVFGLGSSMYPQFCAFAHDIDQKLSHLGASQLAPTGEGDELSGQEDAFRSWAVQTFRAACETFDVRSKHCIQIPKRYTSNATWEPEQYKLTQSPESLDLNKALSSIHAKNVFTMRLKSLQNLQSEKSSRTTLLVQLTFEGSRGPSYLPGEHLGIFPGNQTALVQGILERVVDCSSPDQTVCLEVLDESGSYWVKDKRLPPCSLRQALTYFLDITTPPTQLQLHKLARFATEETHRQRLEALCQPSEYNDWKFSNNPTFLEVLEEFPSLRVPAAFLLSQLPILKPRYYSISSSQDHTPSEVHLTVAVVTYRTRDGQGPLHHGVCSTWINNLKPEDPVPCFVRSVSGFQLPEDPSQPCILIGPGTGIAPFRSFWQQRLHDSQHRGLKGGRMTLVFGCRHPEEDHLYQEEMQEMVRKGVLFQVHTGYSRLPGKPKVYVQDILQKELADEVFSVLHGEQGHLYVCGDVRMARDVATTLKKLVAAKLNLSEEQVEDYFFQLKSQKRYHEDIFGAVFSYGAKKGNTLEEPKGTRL
Method: Crude enzymes of the respective NOS isoforms were prepared by the following procedures (Nagafuji et al., Neuroreport 6, 1541-1545, 1995).
The method of measuring NOS activity was basically the same as already reported by the present inventors and consisted of determining quantitatively the conversion of a substrate L-[^3H]arginine to a reaction product L-[^3H] citrulline (Nagafuji et al., in Brain Edema IX (Ito et al, eds.) 60, pp. 285-288, 1994; Nagafuji et al., Neuroreport 6, 1541-1545, 1995)
The reaction solution consisted of 100 nM L-[^3H] arginine, a prepared crude NOS enzyme sample (10-30 μg/ml protein), 1.25 mM CaCl2, 1 mM EDTA, 10 μg/ml calmodulin, 1 mM NADPH, 100 μM tetrahydrobiopterine, 10 μM FAD, 10 μM FMN and 50 mM Tris-HCl (pH 7.4), to which one of the compounds of the invention or one of the control compounds was added.
(§1) The reaction was started by addition of L-[^3H] arginine. After incubation at 37° C. for 10 min, the reaction was terminated by addition of 2 ml of 50 mM Tris-HCl (pH 5.5) containing 1 mM EDTA and placing the mixture on ice. The reaction solution was passed through a cation-exchange resin column (Dowex AG50WX-8, Na^+ form, 3.2 ml) to separate the reaction product L-[^3H] citrulline from the unreacted residual substrate L-[^3H] arginine. The eluate was combined with another eluate resulting from the passage of a given amount of distilled water through the column and put into a minivial for recovery of L-[^3H] citrulline. Thereafter, a scintillation fluid was added and the contained radioactivity was measured with a liquid scintillation counter to determine the amount of L-[^3H] citrulline.

eNOS (type 3) = biological target: T1, eNOS (type 3) (Bos taurus, UniProt P29473); assay: NOS activity, conversion of L-[3H]arginine to L-[3H]citrulline, crude enzyme of eNOS; assay type: biochemical, cow; details: for IC50: crude enzyme from cow pulmonary arterial endothelium cells (CPAE), 100 nM L-[3H]arginine, 37° C., 10 min; for Ratio of IC50 eNOS/inos: index of selectivity
T1 construct: Cow pulmonary arterial endothelium cells (CPAE) were cultured in a MEM medium containing 20% FBS; endogenous in cells; host or cells: CPAE (cow pulmonary arterial endothelium cells), detergent extract, 100,000 x g supernatant
T1 sequence (P29473 2-1205): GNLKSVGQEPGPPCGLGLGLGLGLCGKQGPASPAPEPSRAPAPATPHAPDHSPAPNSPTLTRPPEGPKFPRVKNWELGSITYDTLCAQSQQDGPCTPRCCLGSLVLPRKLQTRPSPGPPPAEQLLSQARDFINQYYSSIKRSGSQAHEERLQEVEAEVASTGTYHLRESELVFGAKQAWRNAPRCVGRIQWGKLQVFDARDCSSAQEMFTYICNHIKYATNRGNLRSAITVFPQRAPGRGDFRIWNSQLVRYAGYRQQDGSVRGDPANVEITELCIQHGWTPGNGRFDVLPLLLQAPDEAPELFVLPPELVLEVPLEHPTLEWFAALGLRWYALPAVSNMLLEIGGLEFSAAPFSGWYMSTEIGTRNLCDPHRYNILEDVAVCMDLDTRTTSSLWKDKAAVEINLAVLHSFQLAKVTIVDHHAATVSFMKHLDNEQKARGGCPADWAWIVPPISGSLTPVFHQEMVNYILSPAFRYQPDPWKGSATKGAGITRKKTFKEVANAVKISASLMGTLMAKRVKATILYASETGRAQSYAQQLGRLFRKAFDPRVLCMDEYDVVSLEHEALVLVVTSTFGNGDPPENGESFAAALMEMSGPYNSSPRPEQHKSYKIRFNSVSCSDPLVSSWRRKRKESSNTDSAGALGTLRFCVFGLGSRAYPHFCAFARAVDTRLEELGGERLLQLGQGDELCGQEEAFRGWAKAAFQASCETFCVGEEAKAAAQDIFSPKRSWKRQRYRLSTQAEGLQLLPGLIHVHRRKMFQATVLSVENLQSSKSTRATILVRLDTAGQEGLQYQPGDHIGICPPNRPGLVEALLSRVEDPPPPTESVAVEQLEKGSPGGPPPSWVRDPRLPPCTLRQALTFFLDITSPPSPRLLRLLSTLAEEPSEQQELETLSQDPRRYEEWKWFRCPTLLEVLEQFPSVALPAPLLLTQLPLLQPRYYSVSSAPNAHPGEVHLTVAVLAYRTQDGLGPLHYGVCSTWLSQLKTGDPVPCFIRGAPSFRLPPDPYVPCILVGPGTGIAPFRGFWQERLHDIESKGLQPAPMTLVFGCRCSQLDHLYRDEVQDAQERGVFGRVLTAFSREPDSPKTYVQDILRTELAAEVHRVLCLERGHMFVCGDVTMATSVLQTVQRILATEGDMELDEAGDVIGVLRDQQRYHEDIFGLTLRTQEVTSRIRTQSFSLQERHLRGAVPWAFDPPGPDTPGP
Method: The crude enzyme of eNOS was prepared by the following procedure. Cow pulmonary arterial endothelium cells (CPAE) were cultured in a MEM medium containing 20% FBS. Several days later, the cells were detached from the flask using a 0.25% trypsin solution containing 1 mM EDTA and, after addition of a suitable amount of FBS, centrifuged at 1,000 rpm for 10 min. A suitable amount of Ca- and Mg-free phosphate buffer (pH 7.4) was added to the precipitating cells and they were centrifuged at 1,000 rpm for 10 min. The same step was repeated to wash the cells which, upon addition of 50 mM Tris-HCl (pH 7.4) containing 1% Triton X-100 and 1 mM DTT, were left to stand in ice for 1 h. Subsequently, the mixture was homogenized for 3 min and kept in ice for 30 min with occasional stirring. Finally, the mixture was centrifuged at 100,000×g for 60 min and the resulting supernatant was used as the crude enzyme of eNOS.

nNOS (type 1) = biological target: T2, nNOS (type 1) (Rattus norvegicus, UniProt P29476); assay: NOS activity, conversion of L-[3H]arginine to L-[3H]citrulline, crude enzyme of nNOS; assay type: biochemical; details: for IC50: crude enzyme from rat cerebral cortex, soluble cytosolic fraction, 100 nM L-[3H]arginine, 37° C., 10 min, read-out: IC50 (nM) nNOS (type 1); for Ratio of IC50 eNOS/nNOS / Ratio of IC50 iNOS/nNOS: index of selectivity
T2 construct: from tissue; host or cells: rat cerebral cortex, 100,000 x g supernatant (cytosol)
Method: The crude enzyme of nNOS was prepared by the following procedure. Normal untreated male Sprague Dawley (SD) rats (body weight, 300-400 g) were decapitated; the whole brain was immediately taken out from each animal and the cerebral cortex was separated on ice. Then, 5 volumes of 50 mM Tris-HCl containing 1 mM DTT (pH 7.4) was added and the mixture was homogenized for 3 min and centrifuged at 1,000×g for 10 min. The resulting supernatant was further centrifuged at 100,000×g for 60 min and a soluble cytosolic fraction of the finally obtained supernatant was used as the crude enzyme of nNOS.
as §1
The activity of nNOS or eNOS was determined by subtracting the activity detected in the absence of CaCl2 and calmodulin from the activity detected in the presence of CaCl2 and calmodulin. The protein concentration of each crude enzyme sample was determined with a micro-assay kit of Bio Rad Co. Each experiment was conducted in a duplicate.

Row | Structure (SMILES) | IC50 (iNOS (type 2)) | IC50 (eNOS (type 3)) | Ratio of IC50 eNOS/inos (eNOS (type 3)) | selectivity for nNOS inhibition over eNOS compared with L-EIN (nNOS (type 1); comparison drawn from Table 2) | IC50 (nNOS (type 1)) | Ratio of IC50 eNOS/nNOS (nNOS (type 1)) | Ratio of IC50 iNOS/nNOS (nNOS (type 1)) | nNOS inhibiting activity compared with L-MIN (nNOS (type 1); comparison drawn from Table 2) | pIC50 (nNOS (type 1))
1 | N=C(NCCC[C@H](N)C(=O)O)N[N+](=O)[O-] [L-NA, N^G-nitro-L-arginine] | 3460 nM |  |  |  |  |  |  |  | 
2 | CCSC(=N)Nc1ccc(-n2cccn2)c(CN)c1 [Example 2, N-(3-aminomethyl-4-(pyrazol-1-yl)phenyl)-S-ethylisothiourea dihydrochloride] | 20500 nM | 5130 nM | 0.250 | higher selectivity for nNOS inhibition over eNOS than L-EIN | 6.3 nM | 816 | 3260 |  | 
3 | CCSC(=N)Nc1ccc(-n2cccc2)c(CN)c1 [Example 1, N-(3-aminomethyl-4-(pyrrol-1-yl)phenyl)-S-ethylisothiourea dihydrochloride] | 7930 nM | 1920 nM | 0.243 | higher selectivity for nNOS inhibition over eNOS than L-EIN | 3.7 nM | 515 | 2120 | more potent nNOS inhibiting activity than L-MIN | 
4 | CCSC(=N)Nc1ccc(-n2cccn2)c(CN)c1C [Example 7, N-(3-aminomethyl-2-methyl-4-(pyrazol-1-yl)phenyl)-S-ethylisothiourea dihydrochloride] |  | 21100 nM |  | higher selectivity for nNOS inhibition over eNOS than L-EIN | 22.4 nM | 943 |  |  | 
5 | CCSC(=N)NCCC[C@H](N)C(=O)O [L-EIN, S-ethyl-L-thiocitrulline] | 6760 nM | 732 nM |  |  |  |  |  |  | 8.08
6 | N=C(NCCC[C@H](N)C(=O)O)NC1CC1 [L-CPA, N^G-cyclopropyl-L-arginine] | 7150 nM | 1540 nM |  |  |  |  |  |  | 
7 | CSC(=N)NCCC[C@H](N)C(=O)O [L-MIN, S-methyl-L-thiocitrulline, reference compound] | 248 nM | 35.8 nM | 0.145 |  |  | 6.28 | 43.3 |  | 8.24
8 | COC(=O)[C@@H](N)CCCNC(=N)N[N+](=O)[O-] [L-NAME, N^G-nitro-L-arginine methyl ester, reference compound] | 13500 nM | 670 nM |  |  |  |  |  |  | 
